Data set [1] has as its system γ-GTP, ALT, ALP, and a uric acid level. Description: Clinical trial, 12-week D-psicose ingestion (Example 1). It is filed as in vivo, human. Here is the method: Increasing incidence of lifestyle-related diseases, diabetes in particular, has been a problem in Japan. Clinical trials were conducted with recruited diabetic subjects, and biometabolism parameter changes due to D-psicose were investigated. The recruited subjects consisted of diabetes borderline subjects (12 subjects with fasting glucose levels of 110 to 126 mg/dl), and diabetes patients (6 type 2 diabetes patients undergoing drug treatment) (all subjects, males and females, were at least 20 years of age at the time of informed consent). Five grams of D-psicose was ingested per meal for 12 weeks. The D-psicose was purchased from Izumoring Co., Ltd. The subjects were tested after 0, 2, 4, 8, and 12 weeks from the start of the ingestion, and after 4 weeks from the end of the ingestion period (week 16, post-ingestion observation). The subjects were fasted after the dinner served on the day before the testing date. The subjects were measured for γ-GTP, ALT, ALP, and a uric acid level using the service of BML Inc. A paired t-test was used for statistical comparison before and after the ingestion. In the figure, significant difference is given by *:0.05<P or **:0.01<P.

In data set [2] the test system is γ-GTP, ALT, and ALP. Description: Four-week D-psicose ingestion tests (Example 2). As to conditions: 15 g once per day, after 2 weeks. The class given is in vivo, human. Here is the method: Four-week D-psicose ingestion tests were conducted with recruited healthy individuals (8 individuals with a […]) and diabetes borderline subjects (6 individuals with fasting glucose levels of 110 to 126 mg/dl, or HbA1c of 5.9 to 6.5%) (all subjects, males and females, were at least 20 years of age at the time of informed consent). Each subject ingested 15 g of D-psicose once per day. The D-psicose was purchased from Izumoring Co., Ltd. The subjects were tested after 0, 2, and 4 weeks from the start of the ingestion, and after 4 weeks from the end of the ingestion period (week 8, post-ingestion observation). The subjects were fasted after the dinner served on the day before the testing date. The subjects were measured for γ-GTP, ALT, and ALP by using the service of BML Inc. A paired t-test was used for statistical comparison before and after the ingestion. In the figure, significant difference is given by *:0.05<P or **:0.01<P.

For data set [3] the following is noted: oral ingestion, cited from earlier work.
The mark [4] stands for this setting: healthy individuals + diabetes borderline subjects.
Setting [5] is: stratified: healthy individuals, P<0.01.

These results are taken from patent US20140316119A1, “COMPOSITION FOR IMPROVING BIOMETABOLISM PARAMETER” (MATSUTANI CHEMICAL INDUSTRY CO., LTD., priority 2011, published 2014).

As for `O=C(CO)[C@H](O)[C@H](O)[C@H](O)CO` [D-psicose], the ALT change entry in data set [1] (5 g per meal for 12 weeks) is “lack of significant decrease”; in data set [2] (setting [4]), “significantly decreased”. In addition, the γ-GTP change entry in data set [1] (all subjects (diabetes borderline + diabetes patients), 5 g D-psicose per meal, after 4 weeks from the ingestion, paired t-test vs before ingestion) is given as “significantly decreased”; in data set [1] (stratified: diabetes borderline patients, after 4 weeks, P<0.01), “significant decrease”; in data set [1] (stratified: diabetes patients, after 8 weeks, P<0.01), “significant decrease”; in data set [2] (setting [4]) it was “significantly decreased”; in data set [2] (setting [5]) it was “significant decrease”. The ALP change entry in data set [1] (all subjects, 5 g D-psicose per meal, after 2 weeks from the ingestion) is recorded as “significant decrease”; in data set [1] (stratified: diabetes borderline patients, after 2 weeks, P<0.05) it was “significantly decreased”; in data set [1] (stratified: diabetes patients, after 2 weeks, P<0.05), “significantly decreased”; in data set [2] (setting [4]), “significantly decreased”; in data set [2] (setting [5]) it was “significant decrease”. The “uric acid level change” value was “significant decrease” in data set [1] (all subjects, 5 g per meal, after two weeks from the ingestion) and “significant decrease” in data set [1] (stratified: diabetes borderline patients, after 2 weeks). For the same compound, the “share of ingested D-psicose directly absorbed but excreted into urine” value in data set [3] was 70%. Also, the “share of ingested D-psicose that reaches the large intestine, excreted into feces” value in data set [3] (essentially not utilized by enteric bacteria) was 30%.
